Assay results: patent USRE48335E1, “Polymyxin derivatives as antimicrobial compounds” (priority 2014, dated 2020)
≈ marks a conversion by molar mass, not a printed value. Positions of bridges follow the written chain, without caps; N, C: chain ends. Non-standard residues stand in square brackets, D forms with d. Residues, ends and D or L forms follow the SMILES beside them. *: point of attachment. Tle = CC(C)(C)[C@H](N)C(=O)O; dNva = CCC[C@@H](N)C(=O)O; Octanoyl = CCCCCCCC(=O)*; Dab = NCC[C@H](N)C(=O)O; Dap = NC[C@H](N)C(=O)O

Legend:
Enterobacter cloacae = system: Enterobacter cloacae
Procedure: (§1) MICs of the lipopeptides (trifluoroacetic acid salt, TFA) were determined by broth microdilution in cation-adjusted Mueller-Hinton broth (CAMHB) (Oxoid Australia, Thebarton, SA, Australia) according to Clinical and Laboratory Standards Institute standards (Clinical and Laboratory Standards Institute. Performance standards for antimicrobial susceptibility testing; eighteenth informational supplement M100-S18. Wayne, Pa., 2008). Polymyxin B (sulphate) was employed as control. […]

Acinetobacter baumannii = system: Acinetobacter baumannii
Procedure: as §1

Pseudomonas aeruginosa = system: Pseudomonas aeruginosa
Procedure: as §1

CCCCCCCC(=O)N[C@@H](CCN)C(=O)N[C@H](C(=O)N[C@@H](CN)C(=O)N[C@H]1CCNC(=O)[C@H]([C@@H](C)O)NC(=O)[C@H](CCN)NC(=O)[C@H](CCN)NC(=O)[C@H](C(C)(C)C)NC(=O)[C@@H](CC(C)C)NC(=O)[C@H](CCN)NC1=O)[C@@H](C)O [Compound 47] (Octanoyl-[Dab]T[Dap][Dab][Dab][dL][Tle][Dab][Dab]T; lactam 4-C)
Minimum inhibitory concentration, Ec FADDI-EC001 (Enterobacter cloacae): 0.5 µg/mL (≈ 0.438 µM) | Minimum inhibitory concentration, Ec FADDI-EC003 (Enterobacter cloacae): 0.5 µg/mL (≈ 0.438 µM) | Minimum inhibitory concentration, Ec FADDI-EC006 (Enterobacter cloacae): 0.25 µg/mL (≈ 0.219 µM) | Minimum inhibitory concentration, Ab A ATCC 17978 (Acinetobacter baumannii): 2 µg/mL (≈ 1.75 µM) | Minimum inhibitory concentration, Ab ATCC 19606 (Acinetobacter baumannii): 8 µg/mL (≈ 7.01 µM) | Minimum inhibitory concentration, Ab FADDI-AB034 (Acinetobacter baumannii): 1 µg/mL (≈ 0.876 µM) | Minimum inhibitory concentration, Pa ATCC 27853 (Pseudomonas aeruginosa): 1 µg/mL (≈ 0.876 µM) | Minimum inhibitory concentration, Pa FADDI-PA022 (Pseudomonas aeruginosa): 1 µg/mL (≈ 0.876 µM) | Minimum inhibitory concentration, Pa FADDI-PA025 (Pseudomonas aeruginosa): 8 µg/mL (≈ 7.01 µM)

CCCCCCCC(=O)N[C@@H](CN)C(=O)N[C@H](C(=O)N[C@@H](CN)C(=O)N[C@H]1CCNC(=O)[C@H]([C@@H](C)O)NC(=O)[C@H](CCN)NC(=O)[C@H](CCN)NC(=O)[C@H]([C@@H](C)O)NC(=O)[C@@H](CC(C)C)NC(=O)[C@H](CCN)NC1=O)[C@@H](C)O [Compound 48] (Octanoyl-[Dap]T[Dap][Dab][Dab][dL]T[Dab][Dab]T; lactam 4-C)
Minimum inhibitory concentration, Ec FADDI-EC001 (Enterobacter cloacae): 0.25 µg/mL (≈ 0.224 µM) | Minimum inhibitory concentration, Ec FADDI-EC003 (Enterobacter cloacae): <0.125 µg/mL | Minimum inhibitory concentration, Ec FADDI-EC006 (Enterobacter cloacae): <0.125 µg/mL | Minimum inhibitory concentration, Ab A ATCC 17978 (Acinetobacter baumannii): 1 µg/mL (≈ 0.897 µM) | Minimum inhibitory concentration, Ab ATCC 19606 (Acinetobacter baumannii): 1 µg/mL (≈ 0.897 µM) | Minimum inhibitory concentration, Ab FADDI-AB034 (Acinetobacter baumannii): 1 µg/mL (≈ 0.897 µM) | Minimum inhibitory concentration, Pa ATCC 27853 (Pseudomonas aeruginosa): 0.5 µg/mL (≈ 0.448 µM) | Minimum inhibitory concentration, Pa FADDI-PA022 (Pseudomonas aeruginosa): 2 µg/mL (≈ 1.79 µM) | Minimum inhibitory concentration, Pa FADDI-PA025 (Pseudomonas aeruginosa): 4 µg/mL (≈ 3.59 µM)

CCCCCCCC(=O)N[C@@H](CCN)C(=O)N[C@H](C(=O)N[C@@H](CN)C(=O)N[C@H]1CCNC(=O)[C@H]([C@@H](C)O)NC(=O)[C@H](CCN)NC(=O)[C@H](CCN)NC(=O)[C@H]([C@@H](C)O)NC(=O)[C@@H](CCC)NC(=O)[C@H](CCN)NC1=O)[C@@H](C)O [Compound 49] (Octanoyl-[Dab]T[Dap][Dab][Dab][dNva]T[Dab][Dab]T; lactam 4-C)
Minimum inhibitory concentration, Ec FADDI-EC001 (Enterobacter cloacae): 0.5 µg/mL (≈ 0.448 µM) | Minimum inhibitory concentration, Ec FADDI-EC003 (Enterobacter cloacae): 0.5 µg/mL (≈ 0.448 µM) | Minimum inhibitory concentration, Ec FADDI-EC006 (Enterobacter cloacae): 0.25 µg/mL (≈ 0.224 µM) | Minimum inhibitory concentration, Ab A ATCC 17978 (Acinetobacter baumannii): 0.5 µg/mL (≈ 0.448 µM) | Minimum inhibitory concentration, Ab ATCC 19606 (Acinetobacter baumannii): 1 µg/mL (≈ 0.897 µM) | Minimum inhibitory concentration, Ab FADDI-AB034 (Acinetobacter baumannii): 0.5 µg/mL (≈ 0.448 µM) | Minimum inhibitory concentration, Pa ATCC 27853 (Pseudomonas aeruginosa): 0.5 µg/mL (≈ 0.448 µM) | Minimum inhibitory concentration, Pa FADDI-PA022 (Pseudomonas aeruginosa): 0.25 µg/mL (≈ 0.224 µM) | Minimum inhibitory concentration, Pa FADDI-PA025 (Pseudomonas aeruginosa): 16 µg/mL (≈ 14.3 µM)

CCCCCCCC(=O)N[C@@H](CCN)C(=O)N[C@H](C(=O)N[C@@H](CN)C(=O)N[C@H]1CCNC(=O)[C@H]([C@@H](C)O)NC(=O)[C@H](CN)NC(=O)[C@H](CCN)NC(=O)[C@H]([C@@H](C)O)NC(=O)[C@@H](CC(C)C)NC(=O)[C@H](CCN)NC1=O)[C@@H](C)O [Compound 50] (Octanoyl-[Dab]T[Dap][Dab][Dab][dL]T[Dab][Dap]T; lactam 4-C)
Minimum inhibitory concentration, Ec FADDI-EC001 (Enterobacter cloacae): <0.125 µg/mL | Minimum inhibitory concentration, Ec FADDI-EC003 (Enterobacter cloacae): <0.125 µg/mL | Minimum inhibitory concentration, Ec FADDI-EC006 (Enterobacter cloacae): <0.125 µg/mL | Minimum inhibitory concentration, Ab A ATCC 17978 (Acinetobacter baumannii): 0.5 µg/mL (≈ 0.448 µM) | Minimum inhibitory concentration, Ab ATCC 19606 (Acinetobacter baumannii): 0.5 µg/mL (≈ 0.448 µM) | Minimum inhibitory concentration, Ab FADDI-AB034 (Acinetobacter baumannii): 1 µg/mL (≈ 0.897 µM) | Minimum inhibitory concentration, Pa ATCC 27853 (Pseudomonas aeruginosa): 1 µg/mL (≈ 0.897 µM) | Minimum inhibitory concentration, Pa FADDI-PA022 (Pseudomonas aeruginosa): 0.5 µg/mL (≈ 0.448 µM) | Minimum inhibitory concentration, Pa FADDI-PA025 (Pseudomonas aeruginosa): >32 µg/mL

CCCCCCCC(=O)N[C@@H](CCN)C(=O)N[C@H](C(=O)N[C@@H](CN)C(=O)N[C@H]1CCNC(=O)[C@H]([C@@H](C)O)NC(=O)[C@H](CCN)NC(=O)[C@H](CN)NC(=O)[C@H]([C@@H](C)O)NC(=O)[C@@H](CC(C)C)NC(=O)[C@H](CCN)NC1=O)[C@@H](C)O [Compound 51] (Octanoyl-[Dab]T[Dap][Dab][Dab][dL]T[Dap][Dab]T; lactam 4-C)
Minimum inhibitory concentration, Ec FADDI-EC001 (Enterobacter cloacae): 0.25 µg/mL (≈ 0.224 µM) | Minimum inhibitory concentration, Ec FADDI-EC003 (Enterobacter cloacae): 0.25 µg/mL (≈ 0.224 µM) | Minimum inhibitory concentration, Ec FADDI-EC006 (Enterobacter cloacae): 1 µg/mL (≈ 0.897 µM) | Minimum inhibitory concentration, Ab A ATCC 17978 (Acinetobacter baumannii): 4 µg/mL (≈ 3.59 µM) | Minimum inhibitory concentration, Ab ATCC 19606 (Acinetobacter baumannii): 4 µg/mL (≈ 3.59 µM) | Minimum inhibitory concentration, Ab FADDI-AB034 (Acinetobacter baumannii): 8 µg/mL (≈ 7.17 µM) | Minimum inhibitory concentration, Pa ATCC 27853 (Pseudomonas aeruginosa): 1 µg/mL (≈ 0.897 µM) | Minimum inhibitory concentration, Pa FADDI-PA022 (Pseudomonas aeruginosa): 0.5 µg/mL (≈ 0.448 µM) | Minimum inhibitory concentration, Pa FADDI-PA025 (Pseudomonas aeruginosa): >32 µg/mL
